From the supplement of paper PMC10307832

Columns and labels:
Experiment in all cases: relative viability (nuclei count vs DMSO), 5 days (fraction); higher = more cells survive
[1] = compound: Cc1ccc(-n2nc(C(C)(C)C)cc2NC(=O)Nc2ccc(OCCN3CCOCC3)c3ccccc23)cc1 [Doramapimod] + Cc1cc(Nc2cc(N3CCN(C)CC3)nc(Sc3ccc(NC(=O)C4CC4)cc3)n2)n[nH]1 [Tozasertib] (partner 0.1 µM)
Outline: (§1)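 Dosing by pin tool came one day after lung cancer cell lines were seeded in 1536-well plates, using either one drug or a fixed anchor-drug dose plus five library-drug doses (not always all listed) in √10 steps. After 5 days, nuclei were counted on 4× images. Relative viability is treated-well nuclei count divided by vehicle-well nuclei count, and values are medians of duplicate plates.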

[2] = compound: Cn1c(Nc2ccc(C(F)(F)F)cc2)nc2cc(Oc3ccnc(-c4ncc(C(F)(F)F)[nH]4)c3)ccc21 [RAF265] + CC(=O)c1c(C)c2cnc(Nc3ccc(N4CCNCC4)cn3)nc2n(C2CCCC2)c1=O [Palbociclib] (partner 0.5 µM)
Outline: as §1

[3] = compound: Cn1c(Nc2ccc(C(F)(F)F)cc2)nc2cc(Oc3ccnc(-c4ncc(C(F)(F)F)[nH]4)c3)ccc21 [RAF265] + Cc1nc(NC(=O)N2CCC[C@H]2C(N)=O)sc1-c1ccnc(C(C)(C)C(F)(F)F)c1 [Alpelisib] (partner 2 µM)
Outline: as §1

[4] = compound: Cn1c(Nc2ccc(C(F)(F)F)cc2)nc2cc(Oc3ccnc(-c4ncc(C(F)(F)F)[nH]4)c3)ccc21 [RAF265] + Nc1ncn([C@H]2C[C@H](O)[C@@H](CO)O2)c(=O)n1 [Decitabine] (partner 2 µM)
Outline: as §1

Row | Cell Line | relative viability ([1]; first compound 0.02 µM) | relative viability ([1]; first compound 0.06325 µM) | relative viability ([1]; first compound 0.2 µM) | relative viability ([1]; first compound 0.6325 µM) | relative viability ([1]; first compound 2 µM) | relative viability ([2]; first compound 0.01 µM) | relative viability ([2]; first compound 0.03162 µM) | relative viability ([2]; first compound 0.1 µM) | relative viability ([2]; first compound 0.3162 µM) | relative viability ([2]; first compound 1 µM) | relative viability ([3]; first compound 0.01 µM) | relative viability ([3]; first compound 0.03162 µM) | relative viability ([3]; first compound 0.1 µM) | relative viability ([3]; first compound 0.3162 µM) | relative viability ([3]; first compound 1 µM) | relative viability ([4]; first compound 0.01 µM) | relative viability ([4]; first compound 0.03162 µM) | relative viability ([4]; first compound 0.1 µM) | relative viability ([4]; first compound 0.3162 µM) | relative viability ([4]; first compound 1 µM)
1 | HCC-78 | 0.404 | 0.537 | 0.291 | 0.471 | 0.402 | 0.513 | 0.476 | 0.458 | 0.394 | 0.463 | 0.33 | 0.358 | 0.432 | 0.291 | 0.249 | 0.852 | 0.73 | 0.752 | 0.731 | 0.669
2 | COR-L23 | 0.268 | 0.22 | 0.173 | 0.178 | 0.176 | 0.295 | 0.233 | 0.235 | 0.184 | 0.148 | 0.785 | 0.696 | 0.669 | 0.389 | 0.304 | 0.553 | 0.399 | 0.436 | 0.377 | 0.313
3 | NCI-H1993 | 0.688 | 0.564 | 0.622 | 0.598 | 0.565 | 0.584 | 0.595 | 0.661 | 0.575 | 0.507 | 0.648 | 0.648 | 0.77 | 0.761 | 0.715 | 0.615 | 0.644 | 0.561 | 0.544 | 0.624
4 | NCI-H2405 | 0.774 | 0.703 | 0.675 | 0.869 | 0.635 | 0.552 | 0.497 | 0.499 | 0.491 | 0.282 | 0.808 | 0.858 | 0.863 | 0.712 | 0.297 | 0.825 | 0.776 | 0.727 | 0.607 | 0.448
5 | NCI-H2126 | 0.843 | 0.835 | 0.812 | 0.926 | 0.777 | 0.373 | 0.354 | 0.377 | 0.361 | 0.365 | 0.75 | 0.751 | 0.731 | 0.663 | 0.519 | 0.607 | 0.56 | 0.563 | 0.573 | 0.412
6 | NCI-H1944 | 0.234 | 0.229 | 0.235 | 0.256 | 0.235 | 0.356 | 0.367 | 0.291 | 0.261 | 0.185 | 0.896 | 0.841 | 0.646 | 0.496 | 0.442 | 0.445 | 0.496 | 0.398 | 0.384 | 0.317
7 | NCI-H358 | 0.0934 | 0.0925 | 0.101 | 0.105 | 0.109 | 0.129 | 0.117 | 0.116 | 0.129 | 0.124 | 0.984 | 0.6 | 0.477 | 0.382 | 0.282 | 0.25 | 0.206 | 0.164 | 0.15 | 0.154
8 | NCI-H1734 | 0.273 | 0.267 | 0.229 | 0.284 | 0.235 | 0.384 | 0.319 | 0.324 | 0.286 | 0.221 | 0.668 | 0.529 | 0.589 | 0.532 | 0.333 | 0.515 | 0.424 | 0.47 | 0.41 | 0.304
9 | A-427 | 0.248 | 0.216 | 0.218 | – | 0.189 | 0.579 | 0.488 | 0.541 | 0.436 | 0.238 | 1.17 | 1.01 | 0.976 | 0.723 | 0.402 | 0.549 | 0.507 | 0.514 | 0.37 | 0.238
10 | RERF-LC-KJ | 0.506 | 0.535 | 0.609 | 0.516 | 0.498 | 1.06 | 1.23 | 1.05 | 0.885 | 0.832 | 0.791 | 0.573 | 0.851 | 0.625 | 0.584 | 0.815 | 0.616 | 0.669 | 0.583 | 0.527
11 | NCI-H727 | 0.633 | 0.644 | 0.559 | 0.702 | 0.536 | 0.684 | 0.626 | 0.692 | 0.611 | 0.602 | 0.662 | 0.644 | 0.594 | 0.366 | 0.308 | 0.885 | 0.854 | 0.708 | 0.805 | 0.75
12 | LCLC-97TM1 | 0.22 | 0.228 | 0.21 | 0.266 | 0.142 | 0.233 | 0.245 | 0.158 | 0.208 | 0.0796 | 0.274 | 0.194 | 0.2 | 0.144 | 0.125 | 0.248 | 0.203 | 0.191 | 0.159 | 0.122
13 | BEN | 0.533 | 0.402 | 0.499 | 0.325 | 0.429 | 0.459 | 0.477 | 0.509 | 0.468 | 0.441 | 1.08 | 1.05 | 1.2 | 1.1 | 0.814 | 0.835 | 0.722 | 0.769 | 0.737 | 0.655
14 | NCI-H2023 | 0.333 | 0.352 | 0.3 | 0.304 | 0.247 | 0.411 | 0.34 | 0.37 | 0.291 | 0.268 | 0.554 | 0.625 | 0.721 | 0.639 | 0.508 | 0.26 | 0.208 | 0.198 | 0.215 | 0.176
15 | LC-2-ad | 0.447 | 0.444 | 0.448 | 0.413 | 0.484 | 0.488 | 0.499 | 0.55 | 0.58 | 0.29 | 0.771 | 0.727 | 0.724 | 0.35 | 0.202 | 0.778 | 0.814 | 0.884 | 0.773 | 0.516
16 | ABC-1 | 0.235 | 0.228 | 0.183 | 0.189 | 0.123 | 0.633 | 0.644 | 0.646 | 0.528 | 0.47 | 1.13 | 1.01 | 1.01 | 1.05 | 0.619 | 1.16 | 1.04 | 1.07 | 1.17 | 0.979
